Measured values as given in ChEMBL document CHEMBL5214900, “Design, Synthesis, and Biological Evaluation of Membrane-Active Bakuchiol Derivatives as Effective Broad-Spectrum Antibacterial Agents” (J Med Chem, 2021).
Values after ≈ are worked out from the molar mass of the structure shown.

Assays:
Staphylococcus aureus [1] = experiment: Antibacterial activity against Staphylococcus aureus ATCC 29213 assessed as inhibition of bacterial growth incubated for 24 hrs by CLSI based broth dilution method; type: functional
Staphylococcus aureus [2] = experiment: Antibacterial activity against methicillin-resistant Staphylococcus aureus N315 assessed as inhibition of bacterial growth incubated for 24 hrs by CLSI based broth dilution method; type: functional
Staphylococcus aureus [3] = experiment: Antibacterial activity against methicillin-resistant Staphylococcus aureus NCTC10442 assessed as inhibition of bacterial growth incubated for 24 hrs by CLSI based broth dilution method; type: functional
Escherichia coli = experiment: Antibacterial activity against Escherichia coli ATCC 25922 assessed as inhibition of bacterial growth incubated for 24 hrs by CLSI based broth dilution method; type: functional
[4] = Hemolytic activity in rabbit RBC measured after 1 hrs by multimode reader assay; type: toxicity, cell-based, Oryctolagus cuniculus, Erythrocyte; conditions: rabbit red blood cells (erythrocytes)
Pseudomonas aeruginosa = experiment: Antibacterial activity against Pseudomonas aeruginosa ATCC 9027 assessed as inhibition of bacterial growth incubated for 24 hrs by CLSI based broth dilution method; type: functional
Acinetobacter baumannii [5] = experiment: Antibacterial activity against Acinetobacter baumannii ATCC 17978 assessed as inhibition of bacterial growth incubated for 24 hrs by CLSI based broth dilution method; type: functional
Acinetobacter baumannii [6] = experiment: Antibacterial activity against Acinetobacter baumannii R2889 assessed as inhibition of bacterial growth incubated for 24 hrs by CLSI based broth dilution method; type: functional
Klebsiella pneumoniae [7] = experiment: Antibacterial activity against Klebsiella pneumoniae ATCC 10031 assessed as inhibition of bacterial growth incubated for 24 hrs by CLSI based broth dilution method; type: functional
Klebsiella pneumoniae [8] = experiment: Antibacterial activity against Klebsiella pneumoniae ATCC 14581 assessed as inhibition of bacterial growth incubated for 24 hrs by CLSI based broth dilution method; type: functional

SMILES	MIC (Staphylococcus aureus [1])	MIC (Staphylococcus aureus [2])	MIC (Staphylococcus aureus [3])	MIC (Escherichia coli)	HC50 at 1 h [4]	MIC (Pseudomonas aeruginosa)	MIC (Acinetobacter baumannii [5])	MIC (Acinetobacter baumannii [6])	MIC (Klebsiella pneumoniae [7])	MIC (Klebsiella pneumoniae [8])
C=C[C@@](C)(/C=C/c1ccc(OCCCC[N+](C)(CC)CC)cc1)CCC=C(C)C.[I-]	1.56 µg/mL	0.39 µg/mL	0.78 µg/mL	12.5 µg/mL	57 µg/mL	–	–	–	–	–
C=C[C@@](C)(/C=C/c1ccc(OCCCCCCN(CC)CC)cc1)CCC=C(C)C	3.12 µg/mL (≈ 7.59 µM)	0.78 µg/mL (≈ 1.89 µM)	1.56 µg/mL (≈ 3.79 µM)	> 100 µg/mL	65 µg/mL	–	–	–	–	–
C=C[C@@](C)(/C=C/c1ccc(OCCCN(C)C)cc1)CCC=C(C)C	6.25 µg/mL (≈ 18.3 µM)	6.25 µg/mL (≈ 18.3 µM)	6.25 µg/mL (≈ 18.3 µM)	> 100 µg/mL	88.5 µg/mL	–	–	–	–	–
C=C[C@@](C)(/C=C/c1ccc(OCCCCN(C)CCCN(C)C)cc1)CCC=C(C)C	1.56 µg/mL (≈ 3.66 µM)	1.56 µg/mL (≈ 3.66 µM)	3.12 µg/mL (≈ 7.32 µM)	3.12 µg/mL (≈ 7.32 µM)	32.5 µg/mL	12.5 µg/mL (≈ 29.3 µM)	1.56 µg/mL (≈ 3.66 µM)	1.56 µg/mL (≈ 3.66 µM)	1.56 µg/mL (≈ 3.66 µM)	1.56 µg/mL (≈ 3.66 µM)
C=C[C@@](C)(/C=C/c1ccc(OCCCCN2CCN(CCCN(C)C)CC2)cc1)CCC=C(C)C	1.56 µg/mL (≈ 3.24 µM)	0.78 µg/mL (≈ 1.62 µM)	3.12 µg/mL (≈ 6.49 µM)	3.12 µg/mL (≈ 6.49 µM)	52 µg/mL	50 µg/mL (≈ 104 µM)	6.25 µg/mL (≈ 13 µM)	6.25 µg/mL (≈ 13 µM)	1.56 µg/mL (≈ 3.24 µM)	1.56 µg/mL (≈ 3.24 µM)
C=C[C@@](C)(/C=C/c1ccc(OCCCCNCCCCCCCC)cc1)CCC=C(C)C	6.25 µg/mL (≈ 14.2 µM)	1.56 µg/mL (≈ 3.55 µM)	3.12 µg/mL (≈ 7.11 µM)	> 100 µg/mL	> 200 µg/mL	–	–	–	–	–
C=C[C@@](C)(/C=C/c1ccc(OCCCCCCCCCCN(CC)CC)cc1)CCC=C(C)C	12.5 µg/mL (≈ 26.7 µM)	3.12 µg/mL (≈ 6.68 µM)	3.13 µg/mL (≈ 6.68 µM)	> 100 µg/mL	> 200 µg/mL	–	–	–	–	–
C=C[C@@](C)(/C=C/c1ccc(OCCCCCCBr)cc1)CCC=C(C)C	> 50 µg/mL	> 50 µg/mL	> 50 µg/mL	> 100 µg/mL	> 200 µg/mL	–	–	–	–	–
C=C[C@@](C)(/C=C/c1ccc(OCCCN(CC)CC)cc1)CCC=C(C)C	3.12 µg/mL (≈ 8.46 µM)	3.12 µg/mL (≈ 8.46 µM)	3.12 µg/mL (≈ 8.46 µM)	> 100 µg/mL	102 µg/mL	–	–	–	–	–
C=C[C@@](C)(/C=C/c1ccc(OCCCCNCCCCCCCCCC)cc1)CCC=C(C)C	50 µg/mL (≈ 107 µM)	12.5 µg/mL (≈ 26.7 µM)	50 µg/mL (≈ 107 µM)	> 100 µg/mL	> 200 µg/mL	–	–	–	–	–
C=C[C@@](C)(/C=C/c1ccc(OCCCCN2CCCC2)cc1)CCC=C(C)C	1.56 µg/mL (≈ 4.09 µM)	1.56 µg/mL (≈ 4.09 µM)	1.56 µg/mL (≈ 4.09 µM)	> 100 µg/mL	58.2 µg/mL	–	–	–	–	–
C=C[C@@](C)(/C=C/c1ccc(OCCCCN2CCN(C)CC2)cc1)CCC=C(C)C	1.56 µg/mL (≈ 3.8 µM)	3.12 µg/mL (≈ 7.61 µM)	3.12 µg/mL (≈ 7.61 µM)	> 100 µg/mL	104 µg/mL	–	–	–	–	–
C=C[C@@](C)(/C=C/c1ccc(OCCCN(CCCC)CCCC)cc1)CCC=C(C)C	> 50 µg/mL	> 50 µg/mL	> 50 µg/mL	> 100 µg/mL	> 200 µg/mL	–	–	–	–	–
C=C[C@@](C)(/C=C/c1ccc(OCCCCN(Cc2ccccn2)Cc2ccccn2)cc1)CCC=C(C)C	3.12 µg/mL (≈ 6.13 µM)	1.56 µg/mL (≈ 3.06 µM)	1.56 µg/mL (≈ 3.06 µM)	> 100 µg/mL	> 200 µg/mL	–	–	–	–	–
C=C[C@@](C)(/C=C/c1ccc(OCCCCNCC)cc1)CCC=C(C)C	1.56 µg/mL (≈ 4.39 µM)	0.78 µg/mL (≈ 2.19 µM)	1.56 µg/mL (≈ 4.39 µM)	12.5 µg/mL (≈ 35.2 µM)	21.8 µg/mL	–	–	–	–	–
C=C[C@@](C)(/C=C/c1ccc(OCCCCN(C)C)cc1)CCC=C(C)C	1.56 µg/mL (≈ 4.39 µM)	1.56 µg/mL (≈ 4.39 µM)	3.12 µg/mL (≈ 8.79 µM)	50 µg/mL (≈ 141 µM)	41.7 µg/mL	–	–	–	–	–
